According to ChEMBL document CHEMBL3817781, “Identifying Interactions that Determine Fragment Binding at Protein Hotspots” (J Med Chem, 2016):

Biological target: T1, Pantothenate synthetase (Mycobacterium tuberculosis, UniProt P9WIL5)
T1 sequence (P9WIL5 whole entry): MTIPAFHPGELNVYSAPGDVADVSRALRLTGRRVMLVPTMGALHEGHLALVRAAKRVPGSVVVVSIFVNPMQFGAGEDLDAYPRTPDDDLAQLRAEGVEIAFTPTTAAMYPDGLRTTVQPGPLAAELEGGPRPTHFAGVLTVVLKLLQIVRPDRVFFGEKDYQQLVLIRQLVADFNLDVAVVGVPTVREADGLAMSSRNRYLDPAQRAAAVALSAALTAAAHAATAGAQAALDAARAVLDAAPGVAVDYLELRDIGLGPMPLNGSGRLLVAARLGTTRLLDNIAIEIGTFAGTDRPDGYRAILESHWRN
Assay: Inhibition of Mycobacterium tuberculosis pantothenate synthetase expressed in Escherichia coli

For `COc1ccc2c(c1)cc(C(=O)NS(=O)(=O)Cc1ccc(C(F)(F)F)cc1)n2CC(=O)O`, the IC50 was 250 nM.
